{"source": "patent US9931428B2", "about": "“Ophthalmic compositions” (priority 2011, dated 2018)", "assay_in_all_cases": "BS EN1276 quantitative suspension test, bactericidal activity, dirty conditions", "type_in_all_cases": "cell-based", "settings_in_all_cases": "aqueous solution of test article; EN 1276 dirty conditions", "key": {"[1]": {"system": "Pseudomonas aeruginosa ATCC 15442"}, "[2]": {"system": "Staphylococcus aureus NCTC 6571"}, "Bacillus subtillus 10262": {"system": "Bacillus subtillus 10262"}, "Escherichia coli 11867": {"system": "Escherichia coli 11867"}}, "data": [{"smiles": "O=C(O)CC(O)(CC(=O)O)C(=O)O", "note": "[Citric acid, citric acid]", "values": [{"measurement": "Microbial reduction", "setting": "[1]", "result": "2.69 × 10^3"}, {"measurement": "Microbial reduction", "setting": "[2]", "result": "3.02 × 10^2"}, {"measurement": "Microbial reduction", "setting": "Bacillus subtillus 10262", "result": "2.29 × 10^3"}, {"measurement": "Microbial reduction", "setting": "Escherichia coli 11867", "result": "6.46 × 10^2"}]}]}
